Patent US20210221848A1, “POLYMYXIN DERIVATIVES AND THEIR USE IN COMBINATION THERAPY TOGETHER WITH DIFFERENT ANTIBIOTICS” (priority 2014, published 2021)
Values after ≈ are worked out from the molar mass of the structure shown. Like-named read-outs stand apart in the source and are kept apart here. Numbered stars: 1 amine (or outer) side, 2 acyl side, 3 side chain; on linkers, the order of the positions; unused ones are H or OH. Bridge positions count the residues as written; N and C are the ends. Square brackets hold non-standard residues; d marks the D form. Peptide text beside a SMILES is read from it. X7 = CC(C)CN([C@@H](CN)C(=O)[*:2])[*:1]; aThr = C[C@H](O)[C@H](N)C(=O)O; Dab = NCC[C@H](N)C(=O)O

Tests used:
[1] = tested on: E. coli
[2] = tested on: K. pneumoniae
[3] = tested on: K. pneumoniae; assay: MIC in the presence of a fixed concentration (2 μg/mL) of Rifampicin; type: cell-based, Klebsiella pneumoniae; details: Rifampicin 2 μg/mL, Table 5D
Procedure: (§1) The inoculum was prepared by making a direct suspension of isolated colonies (selected from an 18-24 hour Mueller-Hinton agar plate) adjusted to the 0.5 McFarland standard. […] The assays were performed in duplicate. […] In cases where the duplicate values varied by less than 2-fold, the lower of the two values is reported. If a variation of greater than 2-fold was observed, the assay was considered non-valid. Several of the compounds were subjected to multiple tests, and where this is the case, the MIC reflects the modal value obtained.

[4] = tested on: P. aeruginosa
[5] = tested on: E. coli; assay: MIC in the presence of a fixed concentration (2 μg/mL) of Rifampicin; type: cell-based, Escherichia coli; details: Rifampicin 2 μg/mL, Table 5D
[6] = tested on: HK-2 cell line; assay: In vitro renal cell toxicity assay (resazurin reduction)
Procedure: MICs were determined as described herein. HK-2 cell IC50 values were determined as described herein. Values are reported relative to Polymyxin B.

[7] = tested on: A. baumannii
[8] = tested on: A. baumannii; assay: MIC in the presence of […] of rifampicin; type: cell-based, Acinetobacter baumannii
Procedure: as §1

[9] = tested on: A. baumanii strains with elevated MICs to Polymyxin B; assay: MIC against strains with elevated MICs to Polymyxin B; type: cell-based, Acinetobacter baumannii; details: Table 6D
Outline: (§2)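 Direct colony suspension at 0.5 McFarland (from 18-24 h Mueller-Hinton agar) served as inoculum; duplicates, lower value kept if within 2-fold.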

[10] = tested on: E. coli strains with elevated MICs to Polymyxin B; assay: as above; type: cell-based, Escherichia coli; details: Table 6D
Outline: as §2

[11] = tested on: P. aeruginosa strains with elevated MICs to Polymyxin B; assay: as above; type: cell-based, Pseudomonas aeruginosa; details: Table 6D
Outline: as §2

[12] = tested on: K. pneumoniae strains with elevated MICs to Polymyxin B; assay: as above; type: cell-based, Klebsiella pneumoniae; details: Table 6D
Outline: as §2

[13] = absence of a second agent, Table 6B

| Molecule | MIC, E. coli ATCC 25922 [1, 13] | MIC, E. coli NCTC 13441 [1, 13] | MIC, K. pneumoniae ATCC 4352 [2, 13] | MIC, K. pneumoniae ATCC BAA-2146 [2, 13] | MIC, P. aeruginosa ATCC 27853 [4, 13] | MIC, P. aeruginosa CCUG 59347 [4, 13] | HK-2 IC50 rel to PMB [6] | MIC, A. baumannii ATCC BAA-747 [7, 13] | MIC, A. baumannii NCTC 13424 [7, 13] | MIC, E. coli ATCC 25922 ([1]; sole activity, Table 6C) | MIC, E. coli NCTC 13441 ([1]; sole activity, Table 6C) | MIC, K. pneumoniae ATCC 4352 ([2]; sole activity, Table 6C) | MIC, K. pneumoniae ATCC BAA-2146 ([2]; sole activity, Table 6C) | MIC, P. aeruginosa ATCC 27853 ([4]; sole activity, Table 6C) | MIC, P. aeruginosa CCUG 59347 ([4]; sole activity, Table 6C) | HK-2 IC50 rel to PMB* [6] | MIC, A. baumannii ATCC BAA-747 ([7]; sole activity, Table 6C) | MIC, A. baumannii NCTC 13424 ([7]; sole activity, Table 6C) | further results |
| --- | --- | --- | --- | --- | --- | --- | --- | --- | --- | --- | --- | --- | --- | --- | --- | --- | --- | --- | --- |
| 3-Amino-2- benzylpropanoylpoly- myxin B nonapeptide [Example D5] | 8 micrograms/mL | >8 micrograms/mL | 8 micrograms/mL | >8 micrograms/mL | 1 micrograms/mL | >8 micrograms/mL | 15.3 | >8 micrograms/mL | >8 micrograms/mL | – | – | – | – | – | – | – | – | – | MIC in combination with Rifampicin, K. pneumoniae ATCC 4352 ([3]; K. pneumoniae ATCC 4352): 0.03 micrograms/mL; MIC in combination with Rifampicin, K. pneumoniae ATCC BAA-2146 ([3]; K. pneumoniae ATCC BAA-2146): 0.25 micrograms/mL; MIC in combination with Rifampicin, E. coli ATCC 25922 ([5]; E. coli ATCC 25922): 0.03 micrograms/mL; MIC in combination with Rifampicin, E. coli NCTC 13441 ([5]; E. coli NCTC 13441): 0.06 micrograms/mL; MIC in combination with Rifampicin, A. baumannii ATCC BAA-747 ([8]; A. baumannii ATCC BAA-747, Table 5D): 0.25 micrograms/mL; MIC in combination with Rifampicin, A. baumannii NCTC 13424 ([8]; A. baumannii NCTC 13424, Table 5D): ≤0.015 micrograms/mL |
| trans-4-(2- methylpropyl) pyrrolidine-3-carbonyl polymyxin B nonapeptide [Example D38] | 8 micrograms/mL | 8 micrograms/mL | 4 micrograms/mL | 8 micrograms/mL | 1 micrograms/mL | 2 micrograms/mL | 6.3 | >8 micrograms/mL | 2 micrograms/mL | – | – | – | – | – | – | – | – | – | – |
| 2-aminomethyl- 4-methyl pentanoyl polymyxin E nonapeptide [Example D53] | – | – | – | – | – | – | – | – | – | 1 micrograms/mL | 1 micrograms/mL | 0.25 micrograms/mL | 1 micrograms/mL | 0.5 micrograms/mL | 1 micrograms/mL | 18.2 | 1 micrograms/mL | 2 micrograms/mL | – |
| (S)-1-(2- methylpropyl)- piperazine-2- carbonyl polymyxin E nonapeptide [Example D56] | – | – | – | – | – | – | – | – | – | 0.25 micrograms/mL | 0.25 micrograms/mL | 0.125 micrograms/mL | 0.25 micrograms/mL | 0.5 micrograms/mL | 1 micrograms/mL | 22 | 0.5 micrograms/mL | 0.5 micrograms/mL | – |
| trans-4-(2- methylpropyl) pyrrolidine-3- carbonyl-L-Thr- L-Dap-polymyxin B heptapeptide [Example D68] | – | – | – | – | – | – | – | – | – | 0.25 micrograms/mL | 0.25 micrograms/mL | 0.125 micrograms/mL | – | 0.5 micrograms/mL | 0.5 micrograms/mL | 5.3 | 0.25 micrograms/mL | 0.5 micrograms/mL | MIC A. baumannii 053 ([9]; strain 053, elevated MIC to Polymyxin B): >256 micrograms/mL; MIC A. baumannii 056 ([9]; strain 056, elevated MIC to Polymyxin B): 128 micrograms/mL; MIC A. baumannii 068 ([9]; strain 068, elevated MIC to Polymyxin B): 16 micrograms/mL; MIC E. coli 058 ([10]; strain 058, elevated MIC to Polymyxin B): 8 micrograms/mL; MIC E. coli 059 ([10]; strain 059, elevated MIC to Polymyxin B): 16 micrograms/mL; MIC E. coli 060 ([10]; strain 060, elevated MIC to Polymyxin B): 8 micrograms/mL; MIC E. coli 061 ([10]; strain 061, elevated MIC to Polymyxin B): 32 micrograms/mL; MIC P. aeruginosa 065 ([11]; strain 065, elevated MIC to Polymyxin B): 16 micrograms/mL; MIC P. aeruginosa 066 ([11]; strain 066, elevated MIC to Polymyxin B): 16 micrograms/mL; MIC P. aeruginosa 067 ([11]; strain 067, elevated MIC to Polymyxin B): >256 micrograms/mL; MIC K. pneumoniae 062 ([12]; strain 062, elevated MIC to Polymyxin B): 64 micrograms/mL; MIC K. pneumoniae 063 ([12]; strain 063, elevated MIC to Polymyxin B): 64 micrograms/mL; MIC K. pneumoniae 064 ([12]; strain 064, elevated MIC to Polymyxin B): 16 micrograms/mL |
| CC(C)CN[C@@H](CN)C(=O)N[C@H](C(=O)N[C@@H](CCN)C(=O)N[C@H]1CCNC(=O)[C@H]([C@@H](C)O)NC(=O)[C@H](CCN)NC(=O)[C@H](CCN)NC(=O)[C@H](CC(C)C)NC(=O)[C@@H](Cc2ccccc2)NC(=O)[C@H](CCN)NC1=O)[C@H](C)O [Example D51, (S)-2-(2-methylpropylamino) 3-aminopropanoyl polymyxin B nonapeptide] (H-[X7][aThr][Dab][Dab][Dab][dF]L[Dab][Dab]T; lactam 4-C) | – | – | – | – | – | – | 34 | – | – | – | – | – | – | – | – | – | – | – | MIC [1]: 0.5 µg/mL (≈ 0.452 µM); MIC [7]: 1 µg/mL (≈ 0.905 µM) |
